Measurements taken from PubChem BioAssay AID330 (DTP/NCI, 2004).
Where “and” joins values, the source holds several entries; their conditions need not be identical. Equal entries are not always repeated. Inconclusive results and toxic doses are left out.

System: P388 leukemia ip, CD2F1 mice, survival T/C
Assay: NCI In Vivo Anticancer Drug Screen. Data for tumor model P388 Leukemia (intraperitoneal) in CD2F1 (CDF1) mice
Settings: endpoint: median survival time, higher = longer survival
Summary of the method: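 Mice carrying the transplanted tumor received test compound or vehicle. Survival was recorded in each group, and the value is the treated-group measurement divided by that of the vehicle-treated control group.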

[1] = dose: 100.0 mg/kg/injection, schedule: Q01DX005 (ip), vehicle: Klucel (hydroxypropylcellulose) (HPC)
[2] = dose: 200.0 mg/kg/injection, schedule: Q01DX005 (ip), vehicle: Klucel (hydroxypropylcellulose) (HPC)
[3] = dose: 60.0 mg/kg/injection, schedule: Q01DX005 (ip), vehicle: saline with Tween-80
[4] = dose: 120.0 mg/kg/injection, schedule: Q01DX005 (ip), vehicle: saline with Tween-80
[5] = dose: 240.0 mg/kg/injection, schedule: Q01DX005 (ip), vehicle: saline with Tween-80
[6] = dose: 50.0 mg/kg/injection, schedule: Q01DX009 (ip), vehicle: saline with Tween-80
[7] = dose: 100.0 mg/kg/injection, schedule: Q01DX009 (ip), vehicle: saline with Tween-80
[8] = dose: 50.0 mg/kg/injection, schedule: Q01DX005 (ip), vehicle: saline with Tween-80
[9] = dose: 100.0 mg/kg/injection, schedule: Q01DX005 (ip), vehicle: saline with Tween-80
[10] = dose: 200.0 mg/kg/injection, schedule: Q01DX005 (ip), vehicle: saline with Tween-80
[11] = dose: 50.0 mg/kg/injection, schedule: Q01DX005 (ip), vehicle: Klucel (hydroxypropylcellulose) (HPC)

CCN(Cc1cc(Nc2ccnc3cc(Cl)ccc23)ccc1O)C(=O)N1CCN(C)CC1
T/C (dose: 100.0 mg/kg/injection, schedule: Q04DX002 (ip), vehicle: Klucel (hydroxypropylcellulose) (HPC)): 100 % of control
T/C (dose: 200.0 mg/kg/injection, schedule: Q04DX002 (ip), vehicle: Klucel (hydroxypropylcellulose) (HPC)): 96 % of control
T/C (dose: 400.0 mg/kg/injection, schedule: Q04DX002 (ip), vehicle: Klucel (hydroxypropylcellulose) (HPC)): 96 % of control

CCCN(CCC)C(=O)[S-].CCCN(CCC)C(=O)[S-].[Ni+2]
T/C (dose: 12.5 mg/kg/injection, schedule: Q01DX009 (ip), vehicle: saline with Tween-80): 90 % of control
T/C (dose: 25.0 mg/kg/injection, schedule: Q01DX009 (ip), vehicle: saline with Tween-80): 109 % of control

Cc1c(-c2ccccc2)noc1-c1ccccc1
T/C (dose: 100.0 mg/kg/injection, schedule: Q04DX003 (ip), vehicle: saline): 106 % of control
T/C (dose: 200.0 mg/kg/injection, schedule: Q04DX003 (ip), vehicle: saline): 102 % of control
T/C (dose: 400.0 mg/kg/injection, schedule: Q04DX003 (ip), vehicle: saline): 101 % of control

N#Cc1c2ccccc2cc[n+]1Cc1ccc2c(c1)OCO2
T/C (dose: 3.12 mg/kg/injection, schedule: Q04DX002 (ip), vehicle: Klucel (hydroxypropylcellulose) (HPC)): 105 % of control
T/C (dose: 6.25 mg/kg/injection, schedule: Q04DX002 (ip), vehicle: Klucel (hydroxypropylcellulose) (HPC)): 104 % of control
T/C (dose: 12.5 mg/kg/injection, schedule: Q04DX002 (ip), vehicle: Klucel (hydroxypropylcellulose) (HPC)): 100 % of control and 106 % of control

O=C1C(n2ccc(=O)[nH]c2=O)CCN1CCCl (stereo not given)
T/C [1]: 108 % of control
T/C [2]: 108 % of control

NC(=O)c1nnn(Cc2cc(Cl)c(C(=O)c3ccc(Cl)cc3)c(Cl)c2)c1N
T/C (dose: 60.0 mg/kg/injection, schedule: Q01DX005 (ip), vehicle: Klucel (hydroxypropylcellulose) (HPC)): 103 % of control
T/C (dose: 120.0 mg/kg/injection, schedule: Q01DX005 (ip), vehicle: Klucel (hydroxypropylcellulose) (HPC)): 103 % of control
T/C (dose: 240.0 mg/kg/injection, schedule: Q01DX005 (ip), vehicle: Klucel (hydroxypropylcellulose) (HPC)): 115 % of control
T/C (dose: 480.0 mg/kg/injection, schedule: Q01DX005 (ip), vehicle: Klucel (hydroxypropylcellulose) (HPC)): 119 % of control

C1CNC(SC2(SC3=NCCN3)SC3(NCCN3)S2)=N1
T/C (dose: 50.75 mg/kg/injection, schedule: Q01DX001 (ip), vehicle: saline): 104 % of control
T/C (dose: 101.5 mg/kg/injection, schedule: Q01DX001 (ip), vehicle: saline): 99 % of control
T/C (dose: 203.0 mg/kg/injection, schedule: Q01DX001 (ip), vehicle: saline): 101 % of control

O=[N+]([O-])c1cccc(/C=N/NS(=O)(=O)c2ccc(F)cc2)c1O
T/C [3]: 95 % of control
T/C [4]: 93 % of control
T/C [5]: 106 % of control

Cc1cn(C2OC(CO)C(O)C2O)c(=O)nc1N (stereo not given)
T/C (dose: 25.0 mg/kg/injection, schedule: Q01DX005 (ip), vehicle: water): 104 % of control
T/C (dose: 50.0 mg/kg/injection, schedule: Q01DX005 (ip), vehicle: water): 101 % of control
T/C (dose: 100.0 mg/kg/injection, schedule: Q01DX005 (ip), vehicle: water): 100 % of control
T/C (dose: 200.0 mg/kg/injection, schedule: Q01DX005 (ip), vehicle: water): 96 % of control

Cc1ccc(C(=O)C(CN(C)C)CN(C)C)cc1
T/C (dose: 3.12 mg/kg/injection, schedule: Q01DX009 (ip), vehicle: saline): 101 % of control and 90 % of control
T/C (dose: 3.13 mg/kg/injection, schedule: Q01DX009 (ip), vehicle: saline): 112 % of control
T/C (dose: 6.25 mg/kg/injection, schedule: Q01DX009 (ip), vehicle: saline): 110 % of control [middle of 4 runs]
T/C (dose: 12.5 mg/kg/injection, schedule: Q01DX009 (ip), vehicle: saline): 107 % of control and 118 % of control

Clc1ccc(CC(Cn2ccnc2)c2ccccc2Cl)cc1 (stereo not given)
T/C [6]: 94 % of control
T/C [7]: 86 % of control

CC(=O)OCC1OC(OC(C)=O)C(NC(=S)NCC(=O)c2ccc(C)cc2)C(OC(C)=O)C1OC(C)=O (stereo not given)
T/C [8]: 99 % of control
T/C [9]: 100 % of control
T/C [10]: 101 % of control

CC(=O)N(c1ccncc1)c1ccc([N+](=O)[O-])cc1
T/C [3]: 94 % of control
T/C [4]: 92 % of control
T/C [5]: 88 % of control

C=C1C(=O)C23C(OC(=O)CCC)C1CCC2C12COC3(O)C(O)C1C(C)(C)CCC2O (stereo not given)
T/C (dose: 3.75 mg/kg/injection, schedule: Q01DX009 (ip), vehicle: saline with Tween-80): 102 % of control
T/C (dose: 7.5 mg/kg/injection, schedule: Q01DX009 (ip), vehicle: saline with Tween-80): 101 % of control
T/C (dose: 15.0 mg/kg/injection, schedule: Q01DX009 (ip), vehicle: saline with Tween-80): 107 % of control
T/C (dose: 30.0 mg/kg/injection, schedule: Q01DX009 (ip), vehicle: saline with Tween-80): 111 % of control

CC1OCC(O)C(C(O)C(=O)CN(Cc2ccccc2)Cc2ccccc2)O1 (stereo not given)
T/C [8]: 99 % of control
T/C [9]: 99 % of control
T/C [10]: 91 % of control

O=c1[nH][nH]c(=O)n1/N=C\c1ccccc1O
T/C (dose: 50.0 mg/kg/injection, schedule: Q01DX001 (ip), vehicle: Klucel (hydroxypropylcellulose) (HPC)): 100 % of control
T/C (dose: 100.0 mg/kg/injection, schedule: Q01DX001 (ip), vehicle: Klucel (hydroxypropylcellulose) (HPC)): 104 % of control
T/C (dose: 200.0 mg/kg/injection, schedule: Q01DX001 (ip), vehicle: Klucel (hydroxypropylcellulose) (HPC)): 98 % of control

CC(C)C1OC(=O)C=C1Sc1ccccc1 (stereo not given)
T/C [8]: 100 % of control
T/C [9]: 99 % of control
T/C [10]: 114 % of control

C/C(=N/NC(=S)N1CCCCCC1)c1ncccn1
T/C (dose: 6.25 mg/kg/injection, schedule: Q01DX005 (ip), vehicle: saline with Tween-80): 104 % of control
T/C (dose: 12.5 mg/kg/injection, schedule: Q01DX005 (ip), vehicle: saline with Tween-80): 115 % of control

CC1C2C1C1C3NN=CC3C2n2c(=O)n(-c3ccccc3)c(=O)n21 (stereo not given)
T/C [11]: 99 % of control
T/C [1]: 100 % of control
T/C [2]: 105 % of control

COc1cccc2c1C(=O)c1c(OC)c(CSC(=N)N)cc(OC)c1C2=O
T/C (dose: 2.0 mg/kg/injection, schedule: Q01DX009 (ip), vehicle: water): 99 % of control
T/C (dose: 4.0 mg/kg/injection, schedule: Q01DX009 (ip), vehicle: water): 104 % of control
T/C (dose: 8.0 mg/kg/injection, schedule: Q01DX009 (ip), vehicle: water): 104 % of control
T/C (dose: 16.0 mg/kg/injection, schedule: Q01DX009 (ip), vehicle: water): 117 % of control
T/C (dose: 32.0 mg/kg/injection, schedule: Q01DX009 (ip), vehicle: water): 121 % of control
T/C (dose: 64.0 mg/kg/injection, schedule: Q01DX009 (ip), vehicle: water): 111 % of control

NC(=O)c1ccccc1NC(=O)CCCC(=O)O
T/C (dose: 50.0 mg/kg/injection, schedule: Q01DX009 (ip), vehicle: saline): 98 % of control
T/C (dose: 100.0 mg/kg/injection, schedule: Q01DX009 (ip), vehicle: saline): 108 % of control
T/C (dose: 200.0 mg/kg/injection, schedule: Q01DX009 (ip), vehicle: saline): 97 % of control

CC1=NN(C(=O)c2ccncc2)C(=O)C1N=Nc1ccc(-c2ccc(N)cc2)cc1 (stereo not given)
T/C [6]: 97 % of control
T/C [7]: 98 % of control
T/C (dose: 200.0 mg/kg/injection, schedule: Q01DX009 (ip), vehicle: saline with Tween-80): 96 % of control

CN1CCN(c2ccc([N+](=O)[O-])c3no[n+]([O-])c23)CC1
T/C (dose: 2.5 mg/kg/injection, schedule: Q01DX009 (ip), vehicle: saline): 116 % of control
T/C (dose: 20.0 mg/kg/injection, schedule: Q01DX009 (ip), vehicle: saline): 152 % of control

CN1C(=O)/C(=C\c2ccccc2)N=C(c2ccccc2)c2cc(Cl)ccc21
T/C (dose: 25.0 mg/kg/injection, schedule: Q01DX005 (ip), vehicle: saline with Tween-80): 110 % of control
T/C [8]: 96 % of control
T/C [9]: 91 % of control

CC(O)C(NC(=O)OCC1c2ccccc2-c2ccccc21)C(=O)O (stereo not given)
T/C [11]: 104 % of control
T/C [1]: 100 % of control
T/C [2]: 107 % of control

O=C1OCCC1C(=O)C(O)(C(F)(F)F)C(F)(F)F (stereo not given)
T/C (dose: 50.0 mg/kg/injection, schedule: Q01DX001 (ip), vehicle: other): 100 % of control
T/C (dose: 100.0 mg/kg/injection, schedule: Q01DX001 (ip), vehicle: other): 95 % of control
T/C (dose: 200.0 mg/kg/injection, schedule: Q01DX001 (ip), vehicle: other): 91 % of control
